Structures can show the parent of a compound that is named as a salt.
Legend:
[1] = biological target: T1, human RORγt ligand binding domain (RORγt LBD) (Homo sapiens, UniProt P51449); experiment: ThermoFluor® Assay (RORγt thermal shift binding); settings: 0.065 mg/mL RORγt, 60 µM 1,8-ANS, pH 7.0; estimated from concentration response curves
T1 construct: His-tag (N); TurboTEV protease cleavage site (ENLYFQG) (N); made in house; host or cells: E. coli (pHIS1, modified pET vector)
T1 sequence (P51449 258-518): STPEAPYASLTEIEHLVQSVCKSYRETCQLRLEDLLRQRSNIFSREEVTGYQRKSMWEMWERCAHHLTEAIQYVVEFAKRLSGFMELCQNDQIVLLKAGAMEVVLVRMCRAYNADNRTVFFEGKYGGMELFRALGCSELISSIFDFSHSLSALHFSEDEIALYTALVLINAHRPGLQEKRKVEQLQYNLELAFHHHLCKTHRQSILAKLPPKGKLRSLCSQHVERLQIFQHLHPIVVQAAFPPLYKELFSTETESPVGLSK
Procedure: This approach is applicable to a wide variety of systems, and rigorous in theoretical interpretation through quantitation of equilibrium binding constants (KD).
The shift in the melting point described as a ΔTm is proportional to the concentration and affinity of the ligand. The compound potency may be compared as a rank order of either ATm values at a single compound concentration or in terms of KD values, estimated from concentration response curves.
ThermoFluor® experiments were carried out using instruments owned by Janssen Research and Discovery, L.L.C. through its acquisition of 3-Dimensional Pharmaceuticals, Inc. 1,8-ANS (Invitrogen) was used as a fluorescent dye. Protein and compound solutions are dispensed into black 384-well polypropylene PCR microplates (Abgene) and overlayed with silicone oil (1 µL, Fluka, type DC 200) to prevent evaporation.
Bar-coded assay plates are robotically loaded onto a thermostatically controlled PCR-type thermal block and then heated at a typical ramp-rate of 1 °C/minute for all experiments. Fluorescence was measured by continuous illumination with UV light (Hamamatsu LC6) supplied via fiber optic and filtered through a band-pass filter (380-400 nm; >6 OD cutoff). Fluorescence emission of the entire 384-well plate was detected by measuring light intensity using a CCD camera (Sensys, Roper Scientific) filtered to detect 500 ± 25 nm, resulting in simultaneous and independent readings of all 384 wells. Images were collected at each temperature, and the sum of the pixel intensity in a given area of the assay plate was recorded versus temperature. Reference wells contained RORyt without compounds, and the assay conditions were as follows: • 0.065 mg/mL RORγt • 60 µM 1,8-ANS • 100 mM Hepes, pH 7.0 • 10 mM NaCl • 2.5 mM GSH • 0.002% Tween-20
Project compounds were arranged in a pre-dosed mother plate (Greiner Bio-one) wherein compounds are serially diluted in 100% DMSO by 1:2 from a high concentration of 10 mM over 12 columns within a series (column 12 is a reference well containing DMSO, no compound). The compounds were robotically dispensed directly into assay plates (1x = 46 nL) using a Hummingbird capillary liquid handling instrument (Digilab). Following compound dispense, protein and dye in buffer was added to achieve the final assay volume of 3 µL, followed by 1 µL of silicone oil.

[2] = biological target: T2, full-length human RORγt (Homo sapiens, UniProt P51449); experiment: RORγt (full-length human) Reporter Assay (GAL4 luciferase, HEK293T cells); type: cell-based; settings: for inhibition at 2 µM / inhibition at 0.67 µM: HEK-293T; for inhibition at 2 µM: read-out: RORγt (FL) Reporter Assay, % inhibition @ 2 µM; for IC50: overnight (16 to 20 hours) incubation, read-out: RORγt (FL) Reporter Assay, IC50; for inhibition at 0.67 µM: 0.67 µM compound concentration (footnote *), read-out: RORγt (FL) Reporter Assay, % inhibition (values marked *)
T2 construct: expressed in transfected cells; host or cells: HEK293T
T2 sequence (P51449 1-497 isoform P51449-2): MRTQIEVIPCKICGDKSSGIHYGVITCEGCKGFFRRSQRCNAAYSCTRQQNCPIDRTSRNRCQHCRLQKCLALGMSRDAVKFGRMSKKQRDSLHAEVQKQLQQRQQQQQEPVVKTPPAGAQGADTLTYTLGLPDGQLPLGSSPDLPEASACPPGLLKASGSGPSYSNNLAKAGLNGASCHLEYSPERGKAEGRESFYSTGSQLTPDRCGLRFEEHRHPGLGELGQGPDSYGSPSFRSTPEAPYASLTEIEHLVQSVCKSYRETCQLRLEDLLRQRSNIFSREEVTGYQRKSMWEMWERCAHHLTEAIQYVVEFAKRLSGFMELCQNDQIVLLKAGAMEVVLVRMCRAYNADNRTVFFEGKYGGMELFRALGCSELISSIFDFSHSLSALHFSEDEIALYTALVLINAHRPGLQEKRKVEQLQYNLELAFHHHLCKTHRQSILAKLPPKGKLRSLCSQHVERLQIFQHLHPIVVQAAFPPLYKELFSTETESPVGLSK
Procedure: (§1) Compounds were assessed for RORgt functional modulation using either the RORgt ligand binding domain (LBD) reporter assay, or the RORgt full-length (FL) reporter assay.
A reporter assay was used to test functional activity of RORγt modulatory compounds on transcriptional activation driven by full-length human RORγt. Cells used in this assay were transiently co-transfected with three different plasmids, one expressing the GAL4-DNA binding domain (DBD)-RORγt fusion protein under control of a CMV promoter (NH2-Gal4-DBD:RORC-COOH in pCMV-BD, Stratagene #211342), and two reporter plasmids - the firefly luciferase reporter under control of a GAL4 promoter (pFR-Luc 2x GAL4) and Renilla luciferase reporter under control of CMV promoter (pRL-CMV, Promega #E2261). The full-length coding sequence was used for human RORγt, i.e., nucleotides 142-1635 of human RORγt, transcript variant 2, NCBI Accession: NM_001001523.1 (SEQ ID NO:1). HEK293T cells were plated at 35000 per well in 96-well plate in medium of MEM with 8.6% FBS. After 18-22 hours incubation, the transfection was carried out by using a PEI solution with 170.5 ng total DNA/well (50 ng pCMV-BD-ROR plus 20 ng of pFR-Luc reporter and 0.5 ng of pRL-CMV reporter plus 100 ng Carrier DNA (Clontech # 630440) for each well). 4-6 hours after transfection, cells were treated with compounds for overnight in the medium with final concentration of FBS 1.1% and DMSO 0.1%. After overnight (16 to 20 hours) incubation, media were removed and cells were lysed with 20 µL 1x Passive Lysis Buffer (Promega) for 10-15 minutes. Luminescence was measured using a BMG LUMIstar OPTIMA plate reader, after addition of 75 µL/well firefly luciferase buffer, followed by 75 µL/well Renilla luciferase buffer. To calculate the effect of compounds on RORγt activity, firefly values were normalized against values of DMSO only and values of reference compound at saturating concentration, then further normalized against Renilla signals. IC50s were generated by plotting final Renilla normalized data against compound concentration and percent inhibition was calculated against DMSO control.

[3] = biological target: T3, human RORγt LBD (Homo sapiens, UniProt P51449); experiment: RORγt (LBD) Reporter Assay (GAL4 luciferase, HEK293T cells); type: cell-based; settings: for inhibition at 6 µM: HEK-293T, 6 µM compound; for IC50: compounds for 24 hours
T3 construct: expressed in transfected cells; host or cells: HEK293T
T3 sequence (P51449 258-518): T1 sequence (P51449 258-518)
Procedure: as §1
A reporter assay was used to test functional activity of RORγt modulatory compounds on transcriptional activation driven by the RORγt LBD. Cells used in the assay were co-transfected with two constructs. The first construct, pBIND-RORγt LBD, contained the wild type human RORγt LBD fused to the DNA binding domain of the GAL4 protein. The second construct, pGL4.31 (Promega Cat no. C935A), contained multiple GAL4 responsive DNA elements upstream of firefly luciferase. […] The mutant construct was called pBIND-RORγt-AF2.
The pBIND vector contains the GAL4 DNA Binding Domain (GAL4 DBD) and the renilla luciferase gene under control of the SV40 promoter. Renilla luciferase expression serves as a control for transfection efficiency and cell viability.
The reporter assay was performed by transiently transfecting HEK293T cells with 5 µg of pBIND-RORγt LBD or pBIND-RORγt LBD-AF2 and 5 µg pGL4.31 (Promega Cat no. C935A) using Fugene 6 (Invitrogen Cat no. E2691) at a 1:6 ratio of DNA: Fugene 6 in a T-75 flask in which cells were at least 80% confluent. Twenty four hours after bulk transfection, cells were plated into 96-well plates at 50,000 cells/well in phenol-red free DMEM containing 5% Lipid Reduced FCS and Pen/Strep. Six hours after plating, cells were treated with compounds for 24 hours. Media was removed and cells were lysed with 50 µL 1x Glo Lysis Buffer (Promega). Dual Glo Luciferase Reagent (50 µL/well) was then added and firefly luciferase luminescence was read on an Envision after a ten minute incubation. Finally, Stop and Glo reagent (50 µL/well) was added and renilla luciferase luminescence was read on an Envision after a ten minute incubation. To calculate the effect of compounds on RORγt activity, the ratio of firefly to renilla luciferase was determined and plotted against compound concentration. Agonist compounds increase RORγt-driven luciferase expression, and antagonist or inverse agonist compounds decrease luciferase expression.

COc1nc2ccc(C(O)c3c(C)noc3C)cc2c(Cl)c1Cc1ccc(C(F)(F)F)cc1 (single isomer, unassigned) [Example 20b, (4-Chloro-2-methoxy-3-(4-(trifluoromethyl)benzyl)quinolin-6-yl)(3,5-dimethylisoxazol-4-yl)methanol]
Kd [1]: 290 nM | inhibition at 2 µM ([2]; 2 µM compound): 84% | IC50 [2]: 300 nM

COc1nc2ccc(C(O)c3c(C)noc3C)cc2c(Cl)c1Cc1ccc(C(F)(F)F)cc1 (single isomer, unassigned) [Example 20c, (4-Chloro-2-methoxy-3-(4-(trifluoromethyl)benzyl)quinolin-6-yl)(3,5-dimethylisoxazol-4-yl)methanol]
Kd [1]: 22 nM | RORγt (FL) Reporter Assay, % inhibition @ 2 µM ([2]; 2 µM compound, 2 µM): 99% | IC50 [2]: 23 nM

COc1nc2ccc(C(O)c3ccc(C#N)cc3)cc2c(Cl)c1Cc1ccc(C#N)cc1 (stereo not drawn) [Example 9, 4-((4-Chloro-3-(4-cyanobenzyl)-2-methoxyquinolin-6-yl)(hydroxy)methyl)benzonitrile]
Kd [1]: 680 nM | inhibition at 0.67 µM [2]: 42% | IC50 [2]: 150 nM

COc1nc2ccc(C(O)c3c(C)noc3C)cc2c(Cl)c1Cc1ccc(C(F)(F)F)cc1 (stereo not drawn) [Example 20a, (4-Chloro-2-methoxy-3-(4-(trifluoromethyl)benzyl)quinolin-6-yl)(3,5-dimethylisoxazol-4-yl)methanol]
Kd [1]: 86 nM | inhibition at 2 µM ([2]; 2 µM compound): 97% | IC50 [2]: 52 nM

Cc1ncc(C(O)c2ccc3nc(N4CCC4)c(Cc4ccc(C(F)(F)F)cc4)c(Cl)c3c2)n1C (stereo not drawn) [Example 22a, {2-Azetidin-1-yl-4-chloro-3-[4-(trifluoromethyl)benzyl]quinolin-6-yl}(1,2-dimethyl-1H-imidazol-5-yl)methanol]
inhibition at 6 µM [3]: 92% | IC50 [3]: 250 nM | Kd [1]: 81 nM

Cc1ccc(C(O)c2ccc3nc(N4CCC4)c(Cc4ccc(C(F)(F)F)cc4)c(Cl)c3c2)c(C)n1 (stereo not drawn) [Example 23a, {2-Azetidin-1-yl-4-chloro-3-[4-(trifluoromethyl)benzyl]quinolin-6-yl}(2,6-dimethylpyridin-3-yl)methanol]
inhibition at 6 µM [3]: 95% | IC50 [3]: 180 nM | Kd [1]: 140 nM

OC(c1ccncc1)c1ccc2nc(Cl)c(Cc3ccccc3)c(Cl)c2c1 (stereo not drawn) [Example 24, (3-Benzyl-2,4-dichloroquinolin-6-yl)(pyridin-4-yl)methanole•TFA]
inhibition at 6 µM [3]: 41% | IC50 [3]: > 6000 nM | Kd [1]: 230 nM

OC(c1ccncc1)c1ccc2nc(Cl)c(-c3ccccc3)c(Cl)c2c1 (stereo not drawn) [Example 25, (2,4-Dichloro-3-phenylquinolin-6-yl)(pyridin-4-yl)methanol•TFA]
inhibition at 6 µM [3]: 47% | IC50 [3]: > 6000 nM | Kd [1]: 1200 nM

OC(c1ccc(Cl)cc1)c1ccc2nc(Cl)c(-c3ccccc3Cl)c(Cl)c2c1 (stereo not drawn) [Example 26, (4-Chlorophenyl)(2,4-dichloro-3-(2-chlorophenyl)quinolin-6-yl)methanol]
inhibition at 6 µM [3]: 68% | IC50 [3]: ~3000 nM | Kd [1]: 1400 nM

COc1nc2ccc(C(O)C3CN(C(=O)OC(C)(C)C)C3)cc2c(Cl)c1Cc1ccc(C(F)(F)F)cc1 (stereo not drawn) [Example 32, tert-Butyl-3-((4-chloro-2-methoxy-3-(4-(trifluoromethyl)benzyl)quinolin-6-yl)(hydroxy)methyl)azetidine-1-carboxylate]
inhibition at 6 µM [3]: 84% | IC50 [3]: 2200 nM | Kd [1]: 16000 nM

COc1nc2ccc(C(O)c3c(C)nn(C)c3C)cc2c(Cl)c1Cc1ccc(C(F)(F)F)cc1 (stereo not drawn) [Example 34a, (4-Chloro-2-methoxy-3-(4-(trifluoromethyl)benzyl)quinolin-6-yl)(1,3,5-trimethyl-1H-pyrazol-4-yl)methanol]
Kd [1]: 11 nM | inhibition at 0.67 µM [2]: 95% | IC50 [2]: 20 nM

OC(c1ccc(Cl)cc1)c1ccc2nc(Cl)c(-c3ccccc3)c(Cl)c2c1 (stereo not drawn) [Example 35, (4-Chlorophenyl)(2,4-dichloro-3-phenylquinolin-6-yl)methanol]
inhibition at 6 µM [3]: 45% | IC50 [3]: > 6000 nM | Kd [1]: 25000 nM

Source: patent EP3057949B1, “SECONDARY ALCOHOL QUINOLINYL MODULATORS OF ROR GAMMA T” (Janssen Pharmaceutica NV, priority 2013, dated 2015)
